Laboratory results taken from patent US20020026053A1, “Novel 3-(substituted) -2- indolinones compounds and use thereof as inhibitors of protein kinase activity” (priority 1997, published 2002).

Test system: FLK-1 receptor
Experiment: FLK-1 Assay (cellular/catalytic ELISA, VEGF-stimulated phosphotyrosine)
Assay type: cell-based
Design: concentration or dose not given beside the values
Method in brief: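 NIH3T3 C7#3 cells engineered to express Flk-1 were serum-starved overnight (0.1% FBS), then exposed to compound for 2 h at 37 °C (final dilution 1:200, 0.5% DMSO) before VEGF stimulation. Lysates captured on anti-FLK-1 antiserum plates; phosphotyrosine detected by UB40 antibody/POD-ABTS ELISA versus untreated controls.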

## Cc1c(Br)cc(Br)c2c1C(=Cc1cc(Cl)cc(Cl)c1O)C(=O)N2 [10734/H03]
  Flk Kinase % Inhibition (P.110): 4.6%

## Cc1c(Br)cc(Br)c2c1C(=Cc1cc(Cl)ccc1O)C(=O)N2 [10734/H04]
  Flk Kinase % Inhibition (P.110): −1.3%
